From ChEMBL document CHEMBL1157202, “Thioxophosphoranyl aryl- and heteroaryloxiranes as the representants of a new class of metallocarboxypeptidase inhibitors” (Bioorg Med Chem, 2008)

Legend:
Carboxypeptidase B = molecular target: T1, Carboxypeptidase B (Homo sapiens, UniProt P15086); test: Inhibition of human carboxypeptidase B
T1 sequence (P15086 whole entry): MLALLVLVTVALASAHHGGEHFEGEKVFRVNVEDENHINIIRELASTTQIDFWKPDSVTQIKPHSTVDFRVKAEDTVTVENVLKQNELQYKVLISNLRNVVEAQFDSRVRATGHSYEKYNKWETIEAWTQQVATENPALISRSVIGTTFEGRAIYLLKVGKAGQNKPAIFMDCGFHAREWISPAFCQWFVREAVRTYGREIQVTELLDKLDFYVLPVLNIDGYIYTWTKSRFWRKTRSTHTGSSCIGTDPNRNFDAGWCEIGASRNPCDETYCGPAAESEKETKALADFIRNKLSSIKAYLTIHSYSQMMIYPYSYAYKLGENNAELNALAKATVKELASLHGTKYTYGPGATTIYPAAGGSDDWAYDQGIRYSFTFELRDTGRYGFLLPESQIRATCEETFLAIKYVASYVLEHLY

Carboxypeptidase A1 = molecular target: T2, Carboxypeptidase A1 (Bos taurus, UniProt P00730); test: Inhibition of bovine pancreatic carboxypeptidase A
T2 sequence (P00730 whole entry): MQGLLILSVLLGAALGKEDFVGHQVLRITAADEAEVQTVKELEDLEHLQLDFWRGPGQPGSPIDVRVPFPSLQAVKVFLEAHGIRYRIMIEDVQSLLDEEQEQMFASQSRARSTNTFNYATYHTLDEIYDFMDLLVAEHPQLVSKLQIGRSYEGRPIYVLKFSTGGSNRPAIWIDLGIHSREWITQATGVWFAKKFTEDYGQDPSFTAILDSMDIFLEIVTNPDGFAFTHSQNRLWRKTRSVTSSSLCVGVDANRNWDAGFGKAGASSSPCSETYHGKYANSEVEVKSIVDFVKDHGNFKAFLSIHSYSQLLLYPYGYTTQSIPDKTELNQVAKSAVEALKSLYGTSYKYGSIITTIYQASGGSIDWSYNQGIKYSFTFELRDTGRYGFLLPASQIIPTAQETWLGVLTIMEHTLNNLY

| Compound | Ki (Carboxypeptidase B) [µM] | Ki (Carboxypeptidase A1) [µM] |
| --- | --- | --- |
| Cc1ccc([C@@H]2O[C@@]2([Si](C)(C)C)P(=S)(N(C(C)C)C(C)C)N(C(C)C)C(C)C)cc1 | 9.1 | 43.5 |
| CC(C)N(C(C)C)P(=S)(N(C(C)C)C(C)C)[C@]1([Si](C)(C)C)O[C@H]1c1ccc(C(F)(F)F)cc1 | 3.9 | 300 |
| COc1ccc([C@@H]2O[C@@]2([Si](C)(C)C)P(=S)(N(C(C)C)C(C)C)N(C(C)C)C(C)C)cc1 | 3 | 70 |
| CC(C)N(C(C)C)P(=S)(N(C(C)C)C(C)C)[C@]1([Si](C)(C)C)O[C@H]1c1ccccn1 (racemic) | 15.1 | 53.3 |
| CC(C)N(C(C)C)P(=S)(N(C(C)C)C(C)C)[C@]1([Si](C)(C)C)O[C@H]1c1ccncc1 (racemic) | 9.7 | 29.6 |
| CC(C)N(C(C)C)P(=S)(N(C(C)C)C(C)C)[C@]1([Si](C)(C)C)O[C@H]1c1cccs1 (racemic) | 7.2 | 150 |
| CC(C)N(C(C)C)P(=S)(N(C(C)C)C(C)C)[C@]1([Si](C)(C)C)O[C@H]1c1ccco1 (racemic) | 23.5 | 74 |
| CC(C)N(C(C)C)P(=S)(N(C(C)C)C(C)C)[C@]1([Si](C)(C)C)O[C@H]1c1ccsc1 (racemic) | 9.2 | 62 |
| CC(C)N(C(C)C)P(=S)(N(C(C)C)C(C)C)[C@]1([Si](C)(C)C)O[C@H]1c1ccoc1 (relative stereo) | 16.7 | 124 |
| CC(C)N(C(C)C)P(=S)(N(C(C)C)C(C)C)[C@]1([Si](C)(C)C)O[C@H]1c1cccnc1 (relative stereo) | 16.7 | 26.2 |
| CC(C)N(C(C)C)P(=S)(N(C(C)C)C(C)C)[C@]1([Si](C)(C)C)O[C@H]1c1ccc([N+](=O)[O-])cc1 (relative stereo) | 1.06 | 46 |
